Test results as given in US20230181472A1, “PROCESS OF MAKING IVABRADINE HYDROCHLORIDE DRUG PRODUCT” (Amgen Inc., priority 2018, published 2023).
Structures can show the parent of a compound that is named as a salt.

Assay: FT-Raman peak width (FWHM) at 705 cm^−1 as a measure of amorphous ivabradine hydrochloride
Type: physicochemical
Conditions: peak heights normalized at 705 cm^−1, broader peak = more amorphous content
Excerpt: During characterization of the ivabradine hydrochloride chrystalline forms, Fourier Transform Raman Spectroscopy was used to evaluate different peak shapes. A Thermo Scientific Nicolet NXR FT-Raman equipped with liquid nitrogen cooled germanium (Ge) detector (Thermo Scientific) was used for FT-Raman signal collection. Peak broadening was most defined at a Raman shift of 705 cm^−1. The peak heights were normalized at 705 cm^−1 and the width of the peak was characterized as full width at half maximum (FWHM). Table 3 highlights the FWHM of pure tetrahydrate and amorphous drug substance with an approximate doubling of peak width for purely amorphous ivabradine hydrochloride. […] Modifying the process conditions as described herein produced FWHM values of 10.3 and 9.6 cm^−1 for the 5 mg and 7.5 mg drug products respectively showing the significant reduction in the amount of amorphous ivabradine hydrochloride present in the drug product.

Row | FWHM (cm^−1) of 705 cm^−1 peak [cm⁻¹] | Structure (SMILES)
1 | 16.3 | COc1cc2c(cc1OC)CC(=O)N(CCCN(C)C[C@H]1Cc3cc(OC)c(OC)cc31)CC2 [Ivabradine hydrochloride amorphous (pure)]
2 | 8.4 | COc1cc2c(cc1OC)CC(=O)N(CCCN(C)C[C@H]1Cc3cc(OC)c(OC)cc31)CC2 [Ivabradine hydrochloride tetrahydrate (pure)]
